This note sets out measurements from US9273057B2 (Bristol-Myers Squibb Company, priority 2012, dated 2016).

CK2A1 (CK2α/β), sequence (P68400 whole entry, species assumed): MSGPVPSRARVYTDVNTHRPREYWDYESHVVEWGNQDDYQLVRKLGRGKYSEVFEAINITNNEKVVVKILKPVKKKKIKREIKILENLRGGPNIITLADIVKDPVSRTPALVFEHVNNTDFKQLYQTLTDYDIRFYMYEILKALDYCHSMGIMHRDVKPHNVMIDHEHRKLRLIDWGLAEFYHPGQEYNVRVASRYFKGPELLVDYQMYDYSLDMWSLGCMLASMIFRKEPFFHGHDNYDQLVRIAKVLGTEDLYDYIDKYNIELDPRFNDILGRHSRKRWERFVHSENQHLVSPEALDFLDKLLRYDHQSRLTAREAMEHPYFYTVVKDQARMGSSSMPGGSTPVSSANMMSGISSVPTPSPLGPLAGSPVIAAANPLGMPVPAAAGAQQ
CK2A1 (CK2α/β), sequence (P67870 whole entry partner, species assumed): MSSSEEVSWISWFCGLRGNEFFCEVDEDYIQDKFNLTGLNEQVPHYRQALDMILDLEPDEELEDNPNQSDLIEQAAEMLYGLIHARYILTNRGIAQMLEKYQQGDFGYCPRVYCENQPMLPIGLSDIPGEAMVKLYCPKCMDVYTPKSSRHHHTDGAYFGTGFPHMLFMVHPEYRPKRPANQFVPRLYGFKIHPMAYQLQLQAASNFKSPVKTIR

This assay concerns the target CK2A1 (CK2α/β) (Homo sapiens, UniProt P68400). Briefly: CK2 kinase assay, CK2A1 (CK2α/β). It is filed as biochemical. The note with it: Table A; read-out: CK2A1 (CK2α/β) (IC50).
Protocol: For example, in vitro protein kinase assays may be conducted with a relevant purified protein kinase and an appropriate synthetic substrate to determine the inhibitory activity of the compounds. […] Reaction mixtures were incubated at 30° C. for 1 hour, and reaction products were captured by binding to phosphocellulose (P81) filter plates. Incorporation of radioactive phosphate into the peptide substrate was determined by liquid scintillation counting.
The inhibitory activity of the instant compounds may also be measured by recombinant CK2 holoenzyme kinase assays. The assays were performed in U-bottom 384-well plates. […] The reaction was initiated by the combination of bacterially expressed, CK2 α/β or CK2 holoenzyme with substrates and test compounds. The reaction was incubated at room temperature for 60 minutes and terminated by adding 30 μl of 35 mM EDTA to each sample. The reaction mixture was analyzed on the Caliper LABCHIP® 3000 (Caliper, Hopkinton, Mass.) by electrophoretic separation of the fluorescent substrate and phosphorylated product. […] Compounds were dissolved at 10 mM in dimethylsulfoxide (DMSO) and evaluated at eleven concentrations. IC50 values were derived by non-linear regression analysis.
As for `CC(C)N(C1CCN(c2cc(C#N)cc(Nc3nc(NC4CC4)c4ncc(C#N)n4n3)c2Cl)CC1)C1CC(=O)N(C)C1` (centres unmarked) [Example 716, 2-[(2-chloro-5-cyano-3-{4-[(1-methyl-5-oxopyrrolidin-3-yl)(propan-2-yl)amino]piperidin-1-yl}phenyl)amino]-4-(cyclopropylamino)imidazo [2,1-f][1,2,4]triazine-7-carbonitrile], the IC50 came to 32.6 nM.
For `Cc1nn(C)c(C)c1-c1cc(C#N)cc(Nc2nc(NC3CC3)c3ncc(C#N)n3n2)c1Cl` [Example 717, 2-((2-chloro-5-cyano-3-(1,3,5-trimethyl-1H-pyrazol-4-yl)phenyl)amino)-4-(cyclopropylamino)imidazo[2,1-f][1,2,4]triazine-7-carbonitrile], the IC50 is 1.38 nM.
Regarding `N#Cc1cc(Nc2nc(NC3CC3)c3ncc(C#N)n3n2)c(Cl)c(-c2cnn(CCN3CCOCC3)c2)c1` [Example 718, 2-[(2-chloro-5-cyano-3-{1-[2-(morpholin-4-yl)ethyl]-1H-pyrazol-4-yl}phenyl)amino]-4-(cyclopropylamino)imidazo [2,1-f][1,2,4]triazine-7-carbonitrile], the IC50 turned out to be 0.68 nM.
As to `Cc1nn(CCN(C)C)c(C)c1-c1cc(C#N)cc(Nc2nc(NC3CC3)c3ncc(C#N)n3n2)c1Cl` [Example 719, 2-[(2-chloro-5-cyano-3-{1-[2-(dimethylamino)ethyl]-3,5-dimethyl-1H-pyrazol-4-yl}phenyl)amino]-4-(cyclopropylamino)imidazo [2,1-f][1,2,4]triazine-7-carbonitrile], the IC50 is 7.41 nM.
In the case of `CC(CCc1cc(Cl)c(Nc2nc(NC3CC3)c3ncc(C#N)n3n2)cc1C#N)N1CCOCC1` (centres unmarked) [Example 720, 2-((2-chloro-5-cyano-4-(3-morpholinobutyl)phenyl)amino)-4-(cyclopropylamino)imidazo[2,1-f][1,2,4]triazine-7-carbonitrile], the IC50 was determined as 2.48 nM.
Regarding `CC(Cc1cc(Cl)c(Nc2nc(NC3CC3)c3ncc(C#N)n3n2)cc1C#N)CN1CCOCC1` (centres unmarked) [Example 721, 2-({2-chloro-5-cyano-4-[2-(morpholin-4-ylmethyl)propyl]phenyl}amino)-4-(cyclopropylamino)imidazo [2,1-f][1,2,4]triazine-7-carbonitrile], the IC50 is 1.35 nM.
With `CC(O)CCc1cc(Cl)c(Nc2nc(NC3CC3)c3ncc(C#N)n3n2)cc1C#N` (centres unmarked) [Example 722, 2-{[2-chloro-5-cyano-4-(3-hydroxybutyl)phenyl]amino}-4-(cyclopropylamino)imidazo [2,1-f][1,2,4]triazine-7-carbonitrile], the IC50 was 0.16 nM.
Consider `CN1CCN(C(CO)CCc2cc(C#N)cc(Nc3nc(NC4CC4)c4ncc(C#N)n4n3)c2Cl)CC1` (centres unmarked) [Example 723, 2-({2-chloro-5-cyano-3-[4-hydroxy-3-(4-methylpiperazin-1-yl)butyl]phenyl}amino)-4-(cyclopropylamino)imidazo [2,1-f][1,2,4]triazine-7-carbonitrile], for which the IC50 is 1.92 nM.
`CC(CCc1cc(Cl)c(Nc2nc(NC3CC3)c3ncc(C#N)n3n2)cc1C#N)N1CC(O)C1` (centres unmarked) [Example 724, 2-({2-chloro-5-cyano-4-[3-(3-hydroxyazetidin-1-yl)butyl]phenyl}amino)-4-(cyclopropylamino)imidazo [2,1-f][1,2,4]triazine-7-carbonitrile]: the IC50 came to 1.51 nM.
Consider `N#Cc1cc(Nc2nc(NC3CC3)c3ncc(C#N)n3n2)c(Cl)c([C@H]2CCC[C@@H](N3CC(F)C3)C2)c1` [Example 726, 2-({2-chloro-5-cyano-3-[(1S,3R)-3-(3-fluoroazetidin-1-yl)cyclohexyl]phenyl}amino)-4-(cyclopropylamino)imidazo [2,1-f][1,2,4]triazine-7-carbonitrile], for which the IC50 was 2.34 nM.
Regarding `CN[C@@H]1CCC[C@H](c2cc(C#N)cc(Nc3nc(NC4CC4)c4ncc(C#N)n4n3)c2Cl)C1` [Example 727, 2-({2-chloro-5-cyano-3-[(1S,3R)-3-(methylamino)cyclohexyl]phenyl}amino)-4-(cyclopropylamino)imidazo [2,1-f][1,2,4]triazine-7-carbonitrile], the IC50 amounted to 1.23 nM.
With `N#Cc1cc(Nc2nc(NC3CC3)c3ncc(C#N)n3n2)c(Cl)c([C@H]2CCC[C@H](NC[C@H]3CCCO3)C2)c1` [Example 728, 2-({2-chloro-5-cyano-3-[(1S,3S)-3-{[(2R)-oxolan-2-ylmethyl]amino}cyclohexyl]phenyl}amino)-4-(cyclopropylamino)imidazo [2,1-f][1,2,4]triazine-7-carbonitrile], the IC50 was found to be 1.38 nM.
Consider `CC(CC(C)c1cc(Cl)c(Nc2nc(NC3CC3)c3ncc(C#N)n3n2)cc1C#N)NCC(F)(F)F` (centres unmarked) [Example 732, 2-((2-chloro-5-cyano-4-(4-((2,2,2-trifluoroethyl)amino)pentan-2-yl)phenyl)amino)-4-(cyclopropylamino)imidazo[2,1-f][1,2,4]triazine-7-carbonitrile], for which the IC50 was 25.4 nM.
With `CNC(C)CC(C)c1cc(Cl)c(Nc2nc(NC3CC3)c3ncc(C#N)n3n2)cc1C#N` (centres unmarked) [Example 733, 2-({2-chloro-5-cyano-4-[4-(methylamino)pentan-2-yl]phenyl}amino)-4-(cyclopropylamino)imidazo [2,1-f][1,2,4]triazine-7-carbonitrile], the IC50 worked out at 2.24 nM.
`CC(CC(C)N1CC(C)(O)C1)c1cc(Cl)c(Nc2nc(NC3CC3)c3ncc(C#N)n3n2)cc1C#N` (centres unmarked) [Example 736, 2-({2-chloro-5-cyano-4-[4-(3-hydroxy-3-methylazetidin-1-yl)pentan-2-yl]phenyl}amino)-4-(cyclopropylamino)imidazo [2,1-f][1,2,4]triazine-7-carbonitrile]: the IC50 came out at 4.86 nM.
Turning to `N#Cc1cc(Nc2nc(NC3CC3)c3ncc(C#N)n3n2)c(Cl)c(C(F)(F)CO)c1` [Example 737, 2-((2-chloro-5-cyano-3-(1,1-difluoro-2-hydroxyethyl)phenyl)amino)-4-(cyclopropylamino)imidazo[2,1-f][1,2,4]triazine-7-carbonitrile], the IC50 was found to be 0.38 nM.
In the case of `CN1CCN(CCC(F)(F)c2cc(C#N)cc(Nc3nc(NC4CC4)c4ncc(C#N)n4n3)c2Cl)CC1` [Example 738, 2-((2-chloro-5-cyano-3-(1,1-difluoro-3-(4-methylpiperazin-1-yl)propyl)phenyl)amino)-4-(cyclopropylamino)imidazo[2,1-f][1,2,4]triazine-7-carbonitrile], the IC50 turned out to be 0.27 nM.
Regarding `CCNc1nc(Nc2cc(C#N)cc(N3CC[C@@H](NC(=O)OC)C(=O)C3)c2Cl)nn2c(C#N)cnc12` [Example 740, (R)-methyl (1-(2-chloro-5-cyano-3-((7-cyano-4-(ethylamino)imidazo[2,1-f][1,2,4]triazin-2-yl)amino)phenyl)-3-oxopiperidin-4-yl)carbamate], the IC50 amounted to 1.74 nM.
As for `CCNc1nc(Nc2cc(C#N)cc(N3CC[C@@H](NC(=O)OC)[C@H](NC4COC4)C3)c2Cl)nn2c(C#N)cnc12` [Example 746, methyl ((3R,4R)-1-(2-chloro-5-cyano-3-((7-cyano-4-(ethylamino)imidazo[2,1-f][1,2,4]triazin-2-yl)amino)phenyl)-3-(oxetan-3-ylamino)piperidin-4-yl)carbamate], the IC50 was 1.36 nM.
Next, `CCNc1nc(Nc2cc(C#N)cc(N3CC[C@@H](NC(=O)OC)[C@@H](NC4COC4)C3)c2Cl)nn2c(C#N)cnc12` [Example 747, methyl ((3S,4R)-1-(2-chloro-5-cyano-3-((7-cyano-4-(ethylamino)imidazo[2,1-f][1,2,4]triazin-2-yl)amino)phenyl)-3-(oxetan-3-ylamino)piperidin-4-yl)carbamate]: 1.62 nM; `COC(=O)N[C@H]1CCN(c2cc(C#N)cc(Nc3nc(NC4CC4)c4ncc(C#N)n4n3)c2Cl)C[C@@H]1NCC(F)F` [Example 748, methyl ((3S,4S)-1-(2-chloro-5-cyano-3-((7-cyano-4-(cyclopropylamino)imidazo[2,1-f][1,2,4]triazin-2-yl)amino)phenyl)-3-((2,2-difluoroethyl)amino)piperidin-4-yl)carbamate]: 1.4 nM.
For `COC(=O)N[C@H]1CCN(c2cc(C#N)cc(Nc3nc(NC4CC4)c4ncc(C#N)n4n3)c2Cl)C[C@H]1NCC(F)F` [Example 749, methyl ((3R,4S)-1-(2-chloro-5-cyano-3-((7-cyano-4-(cyclopropylamino)imidazo[2,1-f][1,2,4]triazin-2-yl)amino)phenyl)-3-((2,2-difluoroethyl)amino)piperidin-4-yl)carbamate], the IC50 amounted to 0.7 nM.
Regarding `CCNc1nc(Nc2cc(C#N)cc(N3CC[C@@H](NC(=O)OC)[C@H](N(C)C4COC4)C3)c2Cl)nn2c(C#N)cnc12` [Example 750, methyl ((3R,4R)-1-(2-chloro-5-cyano-3-((7-cyano-4-(ethylamino)imidazo[2,1-f][1,2,4]triazin-2-yl)amino)phenyl)-3-(methyl(oxetan-3-yl)amino)piperidin-4-yl)carbamate], the IC50 was found to be 0.9 nM.
For `CCNc1nc(Nc2cc(C#N)cc(N3CC[C@@H](NC(=O)OC)[C@@H](N(C)C4COC4)C3)c2Cl)nn2c(C#N)cnc12` [Example 751, methyl ((3S,4R)-1-(2-chloro-5-cyano-3-((7-cyano-4-(ethylamino)imidazo[2,1-f][1,2,4]triazin-2-yl)amino)phenyl)-3-(methyl(oxetan-3-yl)amino)piperidin-4-yl)carbamate] the value was 1.3 nM; for `COC(=O)N[C@H]1CCN(c2cc(C#N)cc(Nc3nc(NC4CC4)c4ncc(C#N)n4n3)c2Cl)CC1N[C@@H](C)C(N)=O` (stereo partly drawn) [Example 753, methyl N-[(4S)-3-{[(1S)-1-carbamoylethyl]amino}-1-(2-chloro-5-cyano-3-{[7-cyano-4-(cyclopropylamino)imidazo [2,1-f][1,2,4]triazin-2-yl]amino}phenyl)piperidin-4-yl]carbamate], 2.46 nM.
As for `COC(=O)N[C@H]1CCN(c2cc(C#N)cc(Nc3nc(NC4CC4)c4ncc(C#N)n4n3)c2Cl)C[C@H]1NC1(C)COC1` [Example 754, methyl N-[(3R,4S)-1-(2-chloro-5-cyano-3-{[7-cyano-4-(cyclopropylamino)imidazo [2,1-f][1,2,4]triazin-2-yl]amino}phenyl)-3-[(3-methyloxetan-3-yl)amino]piperidin-4-yl]carbamate], the IC50 was found to be 2.93 nM.
